Source: patent US11780841B2, “3,6-methano-1H-pyrrolo[3,2-b]pyridine and 3,6-methano-1H-pyrrolo[3,2-c]pyridine compounds and medicaments using same” (priority 2018, dated 2023)

System: recombinant rabies virus 1088 strain expressing Gaussia Luciferase (GLuc) (1088/GLuc)
Format: cell-based
Conditions: read-out: Anti-rabies activity

Row | Compound | IC50
1 | CC(C)C[C@@H]1[C@@H]2[C@@H]3CN[C@@]1(C(=O)NCc1ccc(O)cc1)C[C@@H]3CN2Cc1ccc(F)cc1 [IF-482] | 10 to 30 µM
2 | O=C(NCCO)[C@@]12C[C@@H]3CN(CC4CCCCC4)[C@@H]([C@@H]3CN1)[C@H]2Cc1ccccc1 [IF-486] | 10 to 30 µM
3 | CC(C)CC[C@@H]1[C@@H]2[C@@H]3CN[C@@]1(C(=O)NCCO)C[C@@H]3CN2Cc1ccc(F)cc1 [IF-490] | 10 to 30 µM
4 | CC(C)CC[C@@H]1[C@@H]2[C@@H]3CN[C@@]1(C(=O)NCc1ccc(O)cc1)C[C@@H]3CN2Cc1ccccc1 [IF-493] | < 5 µM
5 | O=C(NCc1ccc(O)cc1)[C@@]12C[C@@H]3CN(Cc4ccccc4)[C@@H]([C@@H]3CN1)[C@H]2Cc1ccccc1 [IF-494] | 10 to 30 µM
6 | CC(C)CN1C[C@H]2C[C@]3(C(=O)NCc4ccc(O)cc4)NC[C@H]2[C@H]1[C@H]3Cc1cccc2ccccc12 [IF-500] | 10 to 30 µM
7 | CC(C)CC[C@@H]1[C@@H]2[C@@H]3CN[C@@]1(C(=O)NC(C)C)C[C@@H]3CN2Cc1ccc(O)cc1 [IF-503] | < 5 µM
8 | CC(C)NC(=O)[C@@]12C[C@@H]3CN(Cc4ccc(O)cc4)[C@@H]([C@@H]3CN1)[C@H]2Cc1cccc2ccccc12 [IF-504] | 10 to 30 µM
9 | NC(=O)CCNC(=O)[C@@]12C[C@@H]3CN(CC4CCCCC4)[C@@H]([C@@H]3CN1)[C@H]2Cc1cccc2ccccc12 [IF-536] | < 5 µM
10 | NC(=O)CCNC(=O)[C@@]12C[C@@H]3CN(Cc4ccc(F)cc4)[C@@H]([C@@H]3CN1)[C@H]2Cc1cccc2ccccc12 [IF-539] | < 5 µM
11 | O=C(NCCc1ccccc1)[C@@]12C[C@@H]3CN(Cc4ccc(O)cc4)[C@@H]([C@@H]3CN1)[C@H]2Cc1cccc2ccccc12 [IF-580] | 10 to 30 µM
12 | CC(C)NC(=O)[C@@]12C[C@@H]3CN(Cc4cccc5ccccc45)[C@@H]([C@@H]3CN1)[C@H]2Cc1cccc2ccccc12 [IF-596] | 10 to 30 µM
13 | O=C(NCCO)[C@@]12C[C@@H]3CN(Cc4cccc5ccccc45)[C@@H]([C@@H]3CN1)[C@H]2Cc1ccccc1 [IF-603] | 10 to 30 µM
14 | CC(C)C[C@@H]1[C@@H]2[C@@H]3CN[C@@]1(C(=O)NCCO)C[C@@H]3CN2Cc1cccc2ccccc12 [IF-604] | 10 to 30 µM
15 | CC(C)C[C@@H]1[C@@H]2[C@@H]3CN[C@@]1(C(=O)NCCO)C[C@@H]3CN2CC1CCCCC1 [IF-606] | 10 to 30 µM
16 | O=C(NCCc1ccccc1)[C@@]12C[C@@H]3CN(CCO)[C@@H]([C@@H]3CN1)[C@H]2Cc1cccc2ccccc12 [IF-610] | 10 to 30 µM
17 | CC(C)CCN1C[C@H]2C[C@]3(C(=O)NCCO)NC[C@H]2[C@H]1[C@H]3Cc1cccc2ccccc12 [IF-611] | 10 to 30 µM
18 | O=C(NCCO)[C@@]12C[C@@H]3CN(CCc4ccccc4)[C@@H]([C@@H]3CN1)[C@H]2Cc1cccc2ccccc12 [IF-612] | 10 to 30 µM
19 | CC(C)CC[C@@H]1[C@@H]2[C@@H]3CN[C@@]1(C(=O)NCCO)C[C@@H]3CN2Cc1cccc2ccccc12 [IF-613] | 10 to 30 µM
20 | O=C(NCCO)[C@@]12C[C@@H]3CN(Cc4cccc5ccccc45)[C@@H]([C@@H]3CN1)[C@H]2Cc1cccc2ccccc12 [IF-614] | 10 to 30 µM
21 | O=C(NCCO)[C@@]12C[C@@H]3CN(CC4CCCCC4)[C@@H]([C@@H]3CN1)[C@H]2Cc1cccc2ccccc12 [IF-619] | 10 to 30 µM
22 | O=C(NCCO)[C@@]12C[C@@H]3CN(Cc4ccc(F)cc4)[C@@H]([C@@H]3CN1)[C@H]2Cc1cccc2ccccc12 [IF-620] | < 5 µM
23 | O=C(NCCO)[C@@]12C[C@@H]3CN(Cc4ccccc4)[C@@H]([C@@H]3CN1)[C@H]2Cc1cccc2ccccc12 [IF-624] | 10 to 30 µM

Row | Compound | IC50
24 | CC(C)CCN1C[C@H]2C[C@]3(C(=O)NCC(C)C)NC[C@H]2[C@H]1[C@H]3CCc1ccccc1 [IF-635] | 10 to 30 µM
25 | CC(C)C[C@@H]1[C@@H]2[C@@H]3CN[C@@]1(C(=O)NCc1ccccc1)C[C@@H]3CN2CCc1ccccc1 [IF-639] | < 5 µM
26 | O=C(NCc1ccccc1)[C@@]12C[C@@H]3CN(CCc4ccccc4)[C@@H]([C@@H]3CN1)[C@H]2Cc1ccc(O)cc1 [IF-640] | 10 to 30 µM
27 | CC(C)CNC(=O)[C@@]12C[C@@H]3CN(CCc4ccccc4)[C@@H]([C@@H]3CN1)[C@H]2Cc1ccccc1 [IF-641] | < 5 µM
28 | CC(C)C[C@@H]1[C@@H]2[C@@H]3CN[C@@]1(C(=O)NCc1ccccc1)C[C@@H]3CN2CC1CCCCC1 [IF-644] | < 5 µM
29 | O=C(NCc1ccccc1)[C@@]12C[C@@H]3CN(CC4CCCCC4)[C@@H]([C@@H]3CN1)[C@H]2Cc1ccc(O)cc1 [IF-645] | 10 to 30 µM
30 | CC(C)CNC(=O)[C@@]12C[C@@H]3CN(CC4CCCCC4)[C@@H]([C@@H]3CN1)[C@H]2Cc1cccc2ccccc12 [IF-646] | < 5 µM
31 | O=C(NCc1ccccc1)[C@@]12C[C@@H]3CN(Cc4ccc(F)cc4)[C@@H]([C@@H]3CN1)[C@H]2Cc1ccccc1 [IF-649] | < 5 µM
32 | CC(C)C[C@@H]1[C@@H]2[C@@H]3CN[C@@]1(C(=O)NCc1ccccc1)C[C@@H]3CN2Cc1ccc(F)cc1 [IF-650] | < 5 µM
33 | CC(C)CNC(=O)[C@@]12C[C@@H]3CN(Cc4ccc(F)cc4)[C@@H]([C@@H]3CN1)[C@H]2CCc1ccccc1 [IF-652] | < 5 µM
34 | CC(C)CNC(=O)[C@@]12C[C@@H]3CN(Cc4ccc(F)cc4)[C@@H]([C@@H]3CN1)[C@H]2Cc1ccccc1 [IF-653] | 10 to 30 µM
35 | CC(C)CNC(=O)[C@@]12C[C@@H]3CN(Cc4ccc(F)cc4)[C@@H]([C@@H]3CN1)[C@H]2CC(C)C [IF-654] | < 5 µM
36 | CC(C)CCNC(=O)[C@@]12C[C@@H]3CN(CCO)[C@@H]([C@@H]3CN1)[C@H]2Cc1ccccc1 [IF-656] | 10 to 30 µM
37 | CC(C)CCNC(=O)[C@@]12C[C@@H]3CN(CCc4ccccc4)[C@@H]([C@@H]3CN1)[C@H]2CC(C)C [IF-657] | < 5 µM
38 | CC(C)CCNC(=O)[C@@]12C[C@@H]3CN(CC4CCCCC4)[C@@H]([C@@H]3CN1)[C@H]2Cc1ccccc1 [IF-658] | < 5 µM
39 | CC(C)CCNC(=O)[C@@]12C[C@@H]3CN(CC4CCCCC4)[C@@H]([C@@H]3CN1)[C@H]2CC(C)C [IF-659] | 10 to 30 µM
40 | CC(C)CCNC(=O)[C@@]12C[C@@H]3CN(CCO)[C@@H]([C@@H]3CN1)[C@H]2Cc1cccc2ccccc12 [IF-660] | 10 to 30 µM
41 | CC(C)CCNC(=O)[C@@]12C[C@@H]3CN(Cc4ccccc4)[C@@H]([C@@H]3CN1)[C@H]2Cc1ccccc1 [IF-665] | < 5 µM
42 | CC(C)CNC(=O)[C@@]12C[C@@H]3CN(Cc4ccccc4)[C@@H]([C@@H]3CN1)[C@H]2CCc1ccccc1 [IF-670] | < 5 µM
43 | CC(C)CCNC(=O)[C@@]12C[C@@H]3CN(CC(C)C)[C@@H]([C@@H]3CN1)[C@H]2CCc1ccccc1 [IF-673] | < 5 µM
44 | CC(C)CCNC(=O)[C@@]12C[C@@H]3CN(CC(C)C)[C@@H]([C@@H]3CN1)[C@H]2Cc1cccc2ccccc12 [IF-674] | 10 to 30 µM
45 | CC(C)CC[C@@H]1[C@@H]2[C@@H]3CN[C@@]1(C(=O)NCc1ccccc1)C[C@@H]3CN2CC(C)C [IF-675] | < 5 µM
46 | CC(C)CNC(=O)[C@@]12C[C@@H]3CN(CC(C)C)[C@@H]([C@@H]3CN1)[C@H]2CCc1ccccc1 [IF-679] | < 5 µM

Row | Compound | IC50
47 | CC(C)CNC(=O)[C@@]12C[C@@H]3CN(CC(C)C)[C@@H]([C@@H]3CN1)[C@H]2Cc1cccc2ccccc12 [IF-680] | 10 to 30 µM
48 | CC(C)CCNC(=O)[C@@]12C[C@@H]3CN(Cc4ccc(O)cc4)[C@@H]([C@@H]3CN1)[C@H]2Cc1cccc2ccccc12 [IF-684] | 10 to 30 µM
49 | CC(C)CCNC(=O)[C@@]12C[C@@H]3CN(Cc4ccccc4)[C@@H]([C@@H]3CN1)[C@H]2CC(C)C [IF-691] | 10 to 30 µM
50 | CCCCCCNC(=O)[C@@]12C[C@@H]3CN(Cc4ccccc4)[C@@H]([C@@H]3CN1)[C@H]2Cc1ccc(O)cc1 [IF-692] | < 5 µM
51 | CC(C)C[C@@H]1[C@@H]2[C@@H]3CN[C@@]1(C(=O)NCCC(N)=O)C[C@@H]3CN2CCc1ccccc1 [IF-699] | 10 to 30 µM
52 | CC(C)CCN1C[C@H]2C[C@]3(C(=O)NCc4cccc5ccccc45)NC[C@H]2[C@H]1[C@H]3CC(C)C [IF-705] | < 5 µM
53 | CC(C)CCN1C[C@H]2C[C@]3(C(=O)NCc4cccc5ccccc45)NC[C@H]2[C@H]1[C@H]3Cc1ccc(O)cc1 [IF-706] | < 5 µM
54 | CC(C)CCNC(=O)[C@@]12C[C@@H]3CN(CCc4ccccc4)[C@@H]([C@@H]3CN1)[C@H]2Cc1ccc(O)cc1 [IF-707] | < 5 µM
55 | O=C(NCCc1ccccc1)[C@@]12C[C@@H]3CN(Cc4cccc5ccccc45)[C@@H]([C@@H]3CN1)[C@H]2Cc1ccc(O)cc1 [IF-708] | < 5 µM
56 | CC(C)CCNC(=O)[C@@]12C[C@@H]3CN(CC4CCCCC4)[C@@H]([C@@H]3CN1)[C@H]2Cc1ccc(O)cc1 [IF-709] | 10 to 30 µM
57 | O=C(NCCc1ccccc1)[C@@]12C[C@@H]3CN(CC4CCCCC4)[C@@H]([C@@H]3CN1)[C@H]2Cc1ccccc1 [IF-710] | < 5 µM
58 | CC(C)C[C@@H]1[C@@H]2[C@@H]3CN[C@@]1(C(=O)NCCc1ccccc1)C[C@@H]3CN2CC1CCCCC1 [IF-711] | 10 to 30 µM
59 | CC(C)C[C@@H]1[C@@H]2[C@@H]3CN[C@@]1(C(=O)NCCc1ccccc1)C[C@@H]3CN2Cc1ccc(F)cc1 [IF-714] | < 5 µM
60 | O=C(NCCc1ccccc1)[C@@]12C[C@@H]3CN(Cc4ccc(F)cc4)[C@@H]([C@@H]3CN1)[C@H]2Cc1ccc(O)cc1 [IF-715] | < 5 µM
61 | CC(C)CC[C@@H]1[C@@H]2[C@@H]3CN[C@@]1(C(=O)NCCc1ccccc1)C[C@@H]3CN2CC1CCCCC1 [IF-717] | < 5 µM
62 | O=C(NCCc1ccccc1)[C@@]12C[C@@H]3CN(CC4CCCCC4)[C@@H]([C@@H]3CN1)[C@H]2Cc1cccc2ccccc12 [IF-718] | < 5 µM
63 | CC(C)C[C@@H]1[C@@H]2[C@@H]3CN[C@@]1(C(=O)NCCc1ccccc1)C[C@@H]3CN2Cc1ccccc1 [IF-721] | < 5 µM
64 | O=C(NCCc1ccccc1)[C@@]12C[C@@H]3CN(Cc4ccccc4)[C@@H]([C@@H]3CN1)[C@H]2Cc1ccc(O)cc1 [IF-722] | < 5 µM
65 | CC(C)CC[C@@H]1[C@@H]2[C@@H]3CN[C@@]1(C(=O)NCCc1ccccc1)C[C@@H]3CN2Cc1ccccc1 [IF-723] | 10 to 30 µM
66 | CC(C)C[C@@H]1[C@@H]2[C@@H]3CN[C@@]1(C(=O)NCCc1ccccc1)C[C@@H]3CN2CC(C)C [IF-725] | 10 to 30 µM
67 | CC(C)C[C@@H]1[C@@H]2[C@@H]3CN[C@@]1(C(=O)NCc1cccc4ccccc14)C[C@@H]3CN2CC(C)C [IF-726] | 10 to 30 µM
